B1: ThFhb7: de-epoxidase from Thinopyrum ponticum; polypeptide having epoxy group-removing catalytic activity, amino acid sequence SEQ ID NO: 36, gene SEQ ID NO: 1 (protein, listed as Elytrigia ponticum)
chain: MATSASTSTPIIPTAIAGAPPVAGTCCAVAPTLSALALAPLAVPTTTTTVLMPAISSVAASLAVPACALPAAGSAPATLPIIHAPATASLVGASPAIAATLGATTPASGAGALPPPGLLATAVGAAMPGLLIPLSGIAASPGLAATAAPASAVAAAPTAHVGLMVHGLPLAPATAAVTLAGPVAAAGLSSTAALGMVGGAAALMMGSLAAMLGALAALPALAASGPPLLGGAATTAAMIVGGTLAMMAATLPVSGTGGAAACHGAIPGGLHAALALTAGVL

Tests used:
Conditions in all cases: in vivo
ThFhb7 = tested on: ThFhb7; set-up: species or system Thinopyrum ponticum
F. graminearum [1] = tested on: F. graminearum
F. graminearum [2] = tested on: F. graminearum; remark: listed apart in the source
F. graminearum [3] = tested on: F. graminearum; remark: listed apart in the source

Row | Molecule | conversion into glutathione adducts in transgenic wheat overexpressing ThFhb7 (ThFhb7) | diseased spot area on leaves vs KN199 (F. graminearum [1]) | disease spot area of ex-vivo leaves vs receptor material (F. graminearum [2]) | number of diseased spikelets vs control receptor material (F. graminearum [3])
1 | CC(=O)O[C@@H]1C[C@]2(C)[C@@]3(CO)[C@H](O)C(=O)C(C)=C[C@H]3O[C@H]1[C@@]21CO1 [3-ADON, 3-acetyl-deoxynivalenol] | efficiently catalyzed into glutathione adducts |  |  | 
2 | CC(=O)OC[C@]12[C@H](O)C(=O)C(C)=C[C@H]1O[C@@H]1[C@H](O)C[C@@]2(C)[C@]12CO2 [15-ADON, 15-acetyl-deoxynivalenol] | efficiently catalyzed into glutathione adducts |  |  | 
3 | CC1=C[C@H]2O[C@@H]3[C@H](O)C[C@](C)([C@@]2(CO)[C@H](O)C1=O)[C@]31CO1 [DON, deoxynivalenol] | efficiently catalyzed into glutathione adducts |  |  | 
4 | CC1=C[C@H]2O[C@@H]3[C@H](O)[C@@H](O)[C@](C)([C@@]2(CO)[C@H](O)C1=O)[C@]31CO1 [NIV, nivalenol] | efficiently catalyzed into glutathione adducts |  |  | 
5 | B1 |  | significantly reduced | significantly reduced | significantly less
